According to patent publication US8741897B2, “Glucocorticoid mimetics, methods of making them, pharmaceutical compositions and uses thereof” (Boehringer Ingelheim Pharmaceuticals Inc., priority 2003, dated 2014):

The compounds below were run on glucocorticoid receptor function (assay: one or more of the above assays (GR binding and glucocorticoid receptor cell assays: aromatase, IL-6, TAT, MMTV-Luc, IL-8, ICAM-Luc)). Conditions: assay not specified per compound.
Format: cell-based

SMILES | activity as agonists of the glucocorticoid receptor function in one or more of the above assays
Cc1cncc2[nH]c(CC(O)(CC(C)(C)c3ccc(F)cc3O)C(F)(F)F)cc12 (stereo not drawn) [5-Fluoro-2-[4,4,4-trifluoro-3-hydroxy-1,1-dimethyl-3-(4-methyl-1H-pyrrolo[2,3-c]pyridin-2-ylmethyl)butyl]phenol] | potent agonists
CC(C)(CC(O)(Cc1cc2cc(N3CCOCC3)ncc2[nH]1)C(F)(F)F)c1cccc(CN2CCOCC2)c1 (stereo not drawn) [1,1,1-Trifluoro-4-methyl-4-(3-morpholin-4-ylmethylphenyl)-2-(5-morpholin-4-yl-1H-pyrrolo[2,3-c]pyridin-2-ylmethyl)pentan-2-ol] | potent agonists
Cc1c(CC(O)(CC(C)(C)c2cccc(F)c2)C(F)(F)F)[nH]c2cnccc12 (stereo not drawn) [1,1,1-Trifluoro-4-(3-fluorophenyl)-4-methyl-2-(3-methyl-1H-pyrrolo[2,3-c]pyridin-2-ylmethyl)pentan-2-ol] | potent agonists
CC(C)C(=O)c1ccc2[nH]c(CC(O)(CC(C)(C)c3cc(Cl)cc4c3OCC4)C(F)(F)F)cc2n1 (stereo not drawn) [1-{2-[4-(5-Chloro-2,3-dihydrobenzofuran-7-yl)-2-hydroxy-4-methyl-2-trifluoromethylpentyl]-1H-pyrrolo[3,2-b]pyridin-5-yl}-2-methylpropan-1-one] | potent agonists
COc1cc(F)ccc1C(C)(C)CC(O)(Cc1cc2c(C)cncc2[nH]1)C(F)(F)F (stereo not drawn) [1,1,1-Trifluoro-4-(4-fluoro-2-methoxyphenyl)-4-methyl-2-(4-methyl-1H-pyrrolo[2,3-c]pyridin-2-ylmethyl)pentan-2-ol] | potent agonists
COc1ccc(C)cc1C(C)(C)CC(O)(Cc1cc2nc(N3CCCC3)ncc2[nH]1)C(F)(F)F (stereo not drawn) | potent agonists
Cc1cc(C#N)cc2[nH]c(CC(O)(CC(C)(C)c3cc(S(C)(=O)=O)cc4c3OCC4)C(F)F)cc12 (stereo not drawn) [2-[2-Difluoromethyl-2-hydroxy-4-(5-methanesulfonyl-2,3-dihydrobenzofuran-7-yl)-4-methylpentyl]-4-methyl-1H-indole-6-carbonitrile] | agonists
Cc1ccc(F)cc1C(C)(C)CC(O)(Cc1cc2c(C)nccc2[nH]1)C(F)(F)F (stereo not drawn) [1,1,1-Trifluoro-4-(5-fluoro-2-methylphenyl)-4-methyl-2-(4-methyl-1H-pyrrolo[3,2-c]pyridin-2-ylmethyl)pentan-2-ol] | potent agonists
COc1ccc(-c2cncnc2)cc1C(C)(C)CC(O)(Cc1cc2cc(N(C)C)ncc2[nH]1)C(F)(F)F (stereo not drawn) [2-(5-Dimethylamino-1H-pyrrolo[2,3-c]pyridin-2-ylmethyl)-1,1,1-trifluoro-4-(2-methoxy-5-pyrimidin-5-ylphenyl)-4-methylpentan-2-ol] | potent agonists
Cc1ccc(F)cc1C(C)(C)CC(O)(Cc1cc2cc(OS(=O)(=O)C(F)(F)F)ncc2[nH]1)C(F)(F)F (stereo not drawn) [Trifluoromethanesulfonic acid 2-[4-(5-fluoro-2-methylphenyl)-2-hydroxy-4-methyl-2-trifluoromethylpentyl]-1H-pyrrolo[2,3-c]pyridin-5-yl ester] | potent agonists
CC(C)(CC(O)(Cc1cc2ccncc2[nH]1)C1CC1)c1cc(Cl)cc2c1OCC2 (stereo not drawn) [4-(5-Chloro-2,3-dihydrobenzofuran-7-yl)-2-cyclopropyl-4-methyl-1-(1H-pyrrolo[2,3-c]pyridin-2-yl)pentan-2-ol] | agonists
Cc1ccc(F)cc1C(C)(C)CC(O)(Cc1cc2cc(-c3ccccc3)ncc2[nH]1)C(C)(C)C (stereo not drawn) [5-(5-Fluoro-2-methylphenyl)-2,2,5-trimethyl-3-(5-phenyl-1H-pyrrolo[2,3-c]pyridin-2-ylmethyl)hexan-3-ol] | agonists
Cc1ccc(F)cc1C(C)(C)CC(O)(Cc1cc2[nH]c(=O)ccc2[nH]1)C(F)(F)F (stereo not drawn) [2-[4-(5-Fluoro-2-methylphenyl)-2-hydroxy-4-methyl-2-trifluoromethylpentyl]-1,4-dihydropyrrolo[3,2-b]pyridin-5-one] | potent agonists
Cc1ccc(F)c2[nH]c(CC(O)(CC(C)(C)c3cc(S(C)(=O)=O)cc4c3OCC4)C(F)(F)F)cc12 (stereo not drawn) [1,1,1-Trifluoro-2-(7-fluoro-4-methyl-1H-indol-2-ylmethyl)-4-(5-methanesulfonyl-2,3-dihydrobenzofuran-7-yl)-4-methylpentan-2-ol] | potent agonists
CC(C)Oc1cc2cc(CC(O)(CC(C)(C)c3ccccc3)C(F)(F)F)[nH]c2cn1 (stereo not drawn) [1,1,1-Trifluoro-2-(5-isopropoxy-1H-pyrrolo[2,3-c]pyridin-2-ylmethyl)-4-methyl-4-phenylpentan-2-ol] | potent agonists
COc1ccc(-c2ccccc2)cc1C(C)(C)CC(O)(Cc1cc2c(C)nccc2[nH]1)C(F)(F)F (stereo not drawn) [1,1,1-Trifluoro-4-(4-methoxybiphenyl-3-yl)-4-methyl-2-(4-methyl-1H-pyrrolo[3,2-c]pyridin-2-ylmethyl)pentan-2-ol] | potent agonists
CC(C)(CC(O)(Cn1ccc2c1CCCC2=O)C(F)(F)F)c1cccc2c1OCC2 (stereo not drawn) [1-[4-(2,3-Dihydrobenzofuran-7-yl)-2-hydroxy-4-methyl-2-trifluoromethylpentyl]-1,5,6,7-tetrahydroindol-4-one] | agonists
CC(C)(CC(O)(Cc1cc2cc(C#N)ncc2[nH]1)C(F)(F)F)c1cc(Cl)cc2c1OCC2 (stereo not drawn) [2-[4-(5-Chloro-2,3-dihydrobenzofuran-7-yl)-2-hydroxy-4-methyl-2-trifluoromethylpentyl]-1H-pyrrolo[2,3-c]pyridine-5-carbonitrile] | potent agonists
Cc1nc(C#N)cc2[nH]c(CC(O)(CC(C)(C)c3cc(S(C)(=O)=O)cc4c3OCC4)C(F)(F)F)cc12 (stereo not drawn) [2-[2-Hydroxy-4-(5-methanesulfonyl-2,3-dihydrobenzofuran-7-yl)-4-methyl-2-trifluoromethylpentyl]-4-methyl-1H-pyrrolo[3,2-c]pyridine-6-carbonitrile] | potent agonists
Cc1ccc(F)cc1C(C)(C)CC(O)(Cc1cc2cc(N3CCCC3)ncc2[nH]1)C(F)(F)F (stereo not drawn) [1,1,1-Trifluoro-4-(5-fluoro-2-methylphenyl)-4-methyl-2-(5-pyrrolidin-1-yl-1H-pyrrolo[2,3-c]pyridin-2-ylmethyl)pentan-2-ol] | potent agonists
Cc1ccc(F)cc1C(C)(C)CC(O)(Cn1ccc2c1CCCC2=O)C(F)(F)F (stereo not drawn) [1-[4-(5-Fluoro-2-methylphenyl)-2-hydroxy-4-methyl-2-trifluoromethylpentyl]-1,5,6,7-tetrahydroindol-4-one] | agonists
